Measurements published in patent US6906205B2, “Spiro and dispiro 1,2,4-trioxolane antimalarials” (Medicines for Malaria Venture MMV, priority 2002, dated 2005).
Converted amounts (≈) assume the structure as drawn.

What was measured:
[1] = test system: P. falciparum NF54 strain (sensitive to standard antimalarials); experiment: semiautomated microdilution assay, [3H]-hypoxanthine incorporation, NF54 strain; assay type: cell-based, Plasmodium falciparum; conditions: NF54 strain, 72 h incubation
Procedure, shortened: (§1)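 Logit regression analysis was used to estimate IC50 values. Parasites were intraerythrocytic forms from asynchronous stock cultures, and compounds were tested by semiautomated microdilution.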

[2] = test system: ANKA strain of Plasmodium berghei; experiment: single dose ED50/ED90/ED99 determinations in infected mice; assay type: in vivo; conditions: single dose po in SSV, mice, percent reduction in parasitemia on day three post-infection
Procedure, shortened: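 Mice (Moro SPF or NMRI, n=3 per group) infected with P. berghei ANKA received a single dose on day 1 post-infection, vehicle 0.5% CMC/0.5% benzyl alcohol/0.4% Tween 80/0.9% NaCl in water. Read-out is percent reduction in parasitemia on day 3; ED values by nonlinear fitting.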

[3] = test system: P. falciparum K1 strain (Thailand resistant to chloroquine); experiment: semiautomated microdilution assay, [3H]-hypoxanthine incorporation, K1 strain; assay type: cell-based, Plasmodium falciparum; conditions: K1 strain, 72 h incubation
Procedure, shortened: as §1

[4] = test system: parasitemia (malaria infection); experiment: onset of action and recrudescence experiments; assay type: in vivo; conditions: single 100 mg/kg po (SSV) on day +3 post-infection; recrudescence = >5% parasitemia; followed up to 60 days; (n/5) = animals
Experimental: The onset of drug action was determined after a single fixed dose of 100 mg/kg (SSV vehicle) po to groups of five animals on day +3 post-infection (day 0).

[5] = chemical properties of OZ277 salts; conditions: salt of OZ277

Compound: O=C(C[C@H]1CC[C@]2(CC1)OOC1(O2)C2CC3CC(C2)CC1C3)NO (stereo partly shown) [OZ175]
- IC50 (ng/ml) NF54 [1]: 2.0 ng/mL (≈ 5.93 nM)
- ED50 [2]: 3.5 mg/kg
- ED90 [2]: 6.2 mg/kg
- ED99 [2]: 9.9 mg/kg
- IC50 (ng/ml) K1 [3]: 1.4 ng/mL (≈ 4.15 nM)
- Time of Recrudescence [4]: 13.0 days

Compound: CC(C)(N)CNC(=O)CC1CCC2(CC1)OOC1(O2)C2CC3CC(C2)CC1C3.O=C(O)CCC(=O)O (stereo not shown) [Succinate]
- Chemical Stability [5]: Stable
- Crystallinity [5]: Crystalline
- Particle size (90% of particles less than) [5]: ˜150 μm
- Physical stability [5]: Stable
- Stability in analytical solution (up to 24 hrs) [5]: Stable

Compound: CC(C)(N)CNC(=O)CC1CCC2(CC1)OOC1(O2)C2CC3CC(C2)CC1C3.Cc1ccc(S(=O)(=O)O)cc1 (stereo not shown) [Tosylate]
- Chemical Stability [5]: Stable
- Crystallinity [5]: Crystalline
- Particle size (90% of particles less than) [5]: ˜50 μm
- Physical stability [5]: Stable
- Stability in analytical solution (up to 24 hrs) [5]: Stable
